Data published in the OPERA property sets (Mansouri et al. 2018).

Conditions: for log10 BCF / log10 biotransformation half-life (days): fish

SMILES	melting point [°C]	boiling point [°C]	log10 vapour pressure (mmHg)	further results
NC(=O)C#CC#CC#CCO	140	–	–	–
Nc1ccc(S(=O)(=O)Nc2cnccn2)cc1	251	–	–	–
ClCCBr	-16.7	107	1.52	log10 Henry constant (atm·m³/mol): -3.04
Cc1ccc([N+](=O)[O-])c(C)c1	9	247	-1.24	–
COc1nc(C)nc(N)n1	260	–	–	–
CCNc1nc(NC(C)CC)nc(OC)n1 (stereo not given)	87	–	-5.14	log10 Koc (L/kg): 2.78
CCC(C)c1ccc(O)cc1 (stereo not given)	61.5	241	-1.43	ready biodegradability: not readily biodegradable; log10 BCF: 1.31; log10 biotransformation half-life (days): -0.84
CC(C)COP(=O)(OCC(C)C)OCC(C)C	–	264	–	–
CC(=O)c1ccc(C)cc1C	–	228	–	–
COc1ccc(C(=O)O)cc1	185	276	–	ready biodegradability: readily biodegradable
c1ccc(-c2nnc(-c3ccccc3)o2)cc1	139	–	–	–
O=[N+]([O-])C(CO)(CO)CO	214	–	–	ready biodegradability: readily biodegradable
BrC1CCC(Br)C(Br)CCC(Br)C(Br)CCC1Br (stereo not given)	–	–	-6.33	ready biodegradability: not readily biodegradable
COc1cc(O)c2c(=O)c3cc(O)ccc3oc2c1	266	–	–	–
Clc1cccc(-c2c(Cl)c(Cl)c(Cl)c(Cl)c2Cl)c1	–	–	–	log10 Henry constant (atm·m³/mol): -4.7
CCC(C)OC(C)=O (stereo not given)	-98.9	112	1.23	ready biodegradability: readily biodegradable
O=C(CCCN1CCN(c2ccccn2)CC1)c1ccc(F)cc1	74	–	–	–
CC(C)(C)N(CCO)CCO	42	–	–	–
C=C(C)CC(C)(C)C	-93.5	101	1.65	log10 BCF: 2.78; log10 biotransformation half-life (days): 0.12

SMILES	melting point [°C]	boiling point [°C]	log10 vapour pressure (mmHg)	further results
Oc1cccnc1	–	–	–	ready biodegradability: readily biodegradable
COc1ccc2ccc(=O)oc2c1CC=C(C)C	83.5	–	–	–
CC(=O)C(C)CO (stereo not given)	–	–	-0.646	–
CCCOC	–	39.1	2.67	–
O=C1c2ccccc2C(=O)C1c1nc2ccccc2c(Br)c1O	–	–	–	ready biodegradability: not readily biodegradable; log10 BCF: 1.14
C[C@H](CS)C(=O)N1CCC[C@H]1C(=O)O	106	–	–	–
O=C(O)C1CCCCC1	31.5	232	–	–
CCc1ccc(O)c(OC)c1	-7	236	–	–
Cc1ccccc1N.Cl	215	242	–	–
Clc1cc(Cl)c(C(Cl)Cl)cc1Cl	–	280	–	–
CCOP(=S)(OCC)Oc1ccc2c3c(c(=O)oc2c1)CCCC3	88.2	–	–	–
CCCCOCCOCCOCCCC	-60	256	-1.58	–
Cc1cccc2c1CCCC2	-23	234	–	–
CC(C)c1cccc(C(C)C)c1O	18	256	–	ready biodegradability: not readily biodegradable
CCCCCCCCSCCO	0	–	-3.23	–
O=C1C=CCO1	4.5	–	–	–
CC(C)CCO[N+](=O)[O-]	–	146	0.71	log10 Henry constant (atm·m³/mol): -2.59
CCN(C)N=O	–	170	–	–
O=C1CN(/N=C/c2ccc([N+](=O)[O-])o2)C(=O)N1CN1CCOCC1	206	–	–	–

SMILES	melting point [°C]	boiling point [°C]	log10 vapour pressure (mmHg)	further results
O=C=S	-139	-50	3.97	–
O=C(O)c1cc(Oc2ccc(C(F)(F)F)cc2Cl)ccc1[N+](=O)[O-]	150	–	–	log10 Koc (L/kg): 2.05
CCCCCCCCCCCCCCCC(=O)OCCOC(=O)CCCCCCCCCCCCCCC	72	–	–	–
CCN(CC)CCOCCO	–	222	–	–
CCCCCOC=O	-73.5	130	–	–
CCOP(=O)(OCC)OC(=CCl)c1ccc(Cl)cc1Cl	-20	–	-5.12	log10 Koc (L/kg): 2.47
O=[N+]([O-])c1ccc(O)c([N+](=O)[O-])c1	116	–	-3.41	log10 Henry constant (atm·m³/mol): -7.07; ready biodegradability: not readily biodegradable; log10 BCF: 0.57
CCC(Oc1ccccc1)C(=O)O (stereo not given)	98	258	–	–
CCC(=O)C(CC(C)N1CCOCC1)(c1ccccc1)c1ccccc1 (stereo not given)	75.5	–	–	–
C/C=N/O	45	115	–	–
Cc1ccc2ccc3ccc(C)nc3c2n1	160	–	–	–
Oc1ccc(Cl)c(Cl)c1	68	253	–	log10 Koc (L/kg): 3.09; ready biodegradability: not readily biodegradable; log10 BCF: 1.69; log10 biotransformation half-life (days): -0.92
O=NN1CCOCC1	29	225	–	–
COc1c(O)cc(Cl)c(Cl)c1Cl	–	–	-3.05	log10 Koc (L/kg): 2.8; ready biodegradability: not readily biodegradable; log10 BCF: 2.41; log10 biotransformation half-life (days): 0.11
CC(C)[C@]12CC(=O)[C@H](C)[C@H]1C2	–	203	-0.385	–
c1ccc2c(c1)Nc1ccccc1S2	188	371	–	ready biodegradability: not readily biodegradable; log10 BCF: 2.55; log10 biotransformation half-life (days): 0.04
O=C(NC(=O)c1c(F)cccc1F)Nc1ccc(CO/N=C(/c2ccc(Cl)cc2)C2CC2)cc1	–	–	-9.39	–
CCCCOC(=O)CC(=O)OCCCC	-83	252	–	–
